In patent publication US10738061B2, “Inhibitors of RAD52 recombination protein and methods using same” (Drexel University, priority 2015, dated 2020):

How the values were obtained:
[1] = test system: BRCA1/2-deficient cell lines; assay: Growth of BRCA1/2-deficient cell lines (summary over tested lines); type: cell-based, Human
Description: (§1) BxPC3 cells were kept in RPMI 1640 (ATCC) media supplemented with 10% FBS (Gibco). Capan-1/BxPC3 Capan-1 cells were kept in IMDM (ATCC) media containing 20% FBS (GIBCO). […] cells were kept in 48.5% RPMI1640 (ATCC), 48.5% MEGM (Clonetics/Lonza, MEGM kit, CC-3150) and 3% FBS (GIBCO) respectively. Cells in log-phase were harvested and 100 μl cell suspensions were replated in a 96-well plate with a final density of 4000 cells/well. After overnight growth, cells were treated with indicated concentrations of compounds. Media containing the invariant concentration of compounds were refreshed every 3 days until cells were finally lysed by 30 μl/well of Promega CellTiter-Glo reagents and read on a Promega GloMax 96 reader on day 10 (9 days exposure).
as §1, with “(Gibco);” for “(Gibco). Capan-1/BxPC3”, “(GIBCO);” for “(GIBCO).”, “exposure). Promega CellTiter-Glo protocol is available on the web: www dot promega dot com/resources/protocols/technical-bulletins/0/celltiter-glo-luminescent-cell-viability-assay-protocol/” for “exposure).”
MDA-MB-436 cells were cultured in RPMI+10% FBS. BRCA-proficient and BRCA-deficient cells were plated on day 0 in triplicate at 5,000 cells/well. […] Cells were counted on day 4 on a hemocytometer, using Trypan Blue exclusion, and immediately were plated in a clonogenic assay at a density of 500 cells/well in a 6 well plate, in RPMI+10% FBS. […]

[2] = test system: BCR-ABL1-positive BRCA1-deficient 32Dc13 murine hematopoietic cell line that expresses GFP-RAD52; assay: GFP-RAD52 foci formation in response to cisplatin; type: cell-based; settings: compound 2.5 μM
Description: GFP-RAD52 foci formation was measured in BCR-ABL1-positive BRCA1-deficient 32Dc13 murine hematopoietic cell line that expresses GFP-RAD52 (Cramer-Morales et al., 2013, Blood 122, 1293-1304). RAD51 foci formation was measured in parental 32Dc13.
Both cell lines were cultured in IMDM plus 10% FBS. […] After 4 h of incubation, the cells were treated with 3 μg/mL cisplatin for 16 h. Following cisplatin treatment, cytospins were prepared using polylysine coated slides (Thermo Scientific). DNA was counterstained with DAPI. To detect RAD51 foci, cells were stained with an anti-RAD51 antibody (Thermo Scientific), followed by a secondary antibody conjugated with AlexaFluor 594. RAD51 and GFP-RAD52 foci were visualized with an inverted Olympus IX70 fluorescence microscope equipped with a Cooke Sensicam QE camera (The Cooke Co., Auburn Hills, Mich., USA). Images from 25-60 cells/group were processed using SlideBook 3.0 (Intelligent Imaging Innovation).
In response to DNA damage, RAD52 accumulates in the nucleus forming distinct structures known as foci (Essers et al., 2002, EMBO J. 21, 2030-2037; Liu et al., 2000, EMBO Rep 1, 85-90). The foci represent RAD52 complexes with DNA repair intermediates. Inhibitors of RAD52 may decrease RAD52 foci formation by disrupting its interaction with DNA substrates.

salmon sperm DNA = assay: Acridine orange displacement assay for DNA binding
Description: The selected compounds were tested their abilities to bind DNA to rule out DNA binding as an undesired mechanism of action. The compounds in varied concentrations were added into 30 μl reaction mixtures containing 50 nM acridine orange and 6 μg/ml salmon sperm DNA, 10 mM HEPES, pH 7.5; 1 mM EDTA pH 7.5; 100 mM NaCl in 384-well plates, and the reactions were incubated at room temperature for 20 min followed by fluorescence polarization measurement using an EnVision (Perkin Elmer) equipped with a 480 nm excitation filter and 535 nm S and P emission filters with a D505 FP/D535 dichroic mirror. Mitoxantrone (10 μM) was used as a positive control. The S and P values are processed with the standard fluorescence polarization calculation formula (mP=1000*(S-G*P)/(S+G*P) where G is the G-factor and is approximately 1.

- DNA binding (salmon sperm DNA): did not bind DNA
SMILES: COc1ccc(OC)c(Nc2nc(NCCCO)c3ccccc3n2)c1 [D-G23, 3-((2-((2,5-dimethoxyphenyl)amino)quinazolin-4-yl)amino)propan-1-ol]
- preferential inhibition of BRCA1/2-deficient cell lines (summary) [1]: preferentially inhibited at least two BRCA1/2-deficient cell lines
- fraction of cells with RAD52 foci (>5 foci) ([2]; cisplatin-treated, without inhibitor 38.7±10%): 19±0.4%
- fraction of cisplatin-treated cells without foci ([2]; without inhibitor 48.4±6.2%): 57.6±0.5%
